Experimental data as given in paper PMC6646883 (Biomacromolecules, 2019).
Where no end group is shown, it is not given here.

type: physicochemical; details: methylene blue assay, dilute solution 0.1 mg/mL in 1x PBS pH 7.4 with Zn(OAc)2, Cys trigger, rt, absorbance at 750 nm, quadruplicate, t1/2=ln(2)/slope

Substance | H2S release half-life (pseudo-first-order) [min]
IAVEEEE [APA 1] | 31
IAVEEEE [APA 3] | 19
IAVEEEE [APA 5] | 13
